# According to the supplement of paper PMC10307832:
# What was measured:
# Assay in all cases: relative viability (nuclei count vs DMSO), 5 days (fraction); higher = more cells survive
# Carboplatin = compound: C1CC(C1)(C(=O)O)C(=O)O.[NH2-].[NH2-].[Pt+2] [Carboplatin]
# Summary of the method: (§1)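 Lung cancer cell lines were seeded into 1536-well plates, kept overnight at 37 °C and pinned with five library-drug doses (not always all listed) spaced by √10. After 5 days, nuclei were Hoechst-stained, imaged at 4× and counted with MetaXpress. Viability is treated-well nuclei over vehicle-well nuclei, taken as a median across plates. Plates needed control CV below 25% and at least one doubling.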
# MLN4924 = compound: NS(=O)(=O)OC[C@@H]1C[C@@H](n2ccc3c(N[C@H]4CCc5ccccc54)ncnc32)C[C@@H]1O [MLN4924]
# Summary of the method: as §1
# GSK126 = compound: CC[C@H](C)N1C=C(C2=C(C=C(C=C21)C3=CN=C(C=C3)N4CCNCC4)C(=O)NCC5=C(C=C(NC5=O)C)C)C [GSK126]
# Summary of the method: as §1
Cell Line,relative viability (Carboplatin; 0.08 µM),relative viability (Carboplatin; 0.253 µM),relative viability (Carboplatin; 0.8 µM),relative viability (Carboplatin; 2.53 µM),relative viability (Carboplatin; 8 µM),relative viability (MLN4924; 0.04 µM),relative viability (MLN4924; 0.1265 µM),relative viability (MLN4924; 0.4 µM),relative viability (MLN4924; 1.265 µM),relative viability (MLN4924; 4 µM),relative viability (GSK126; 0.08 µM),relative viability (GSK126; 0.253 µM),relative viability (GSK126; 0.8 µM),relative viability (GSK126; 2.53 µM),relative viability (GSK126; 8 µM)
201T,1.01,0.994,1.03,0.971,0.9,1.09,0.989,0.73,0.375,0.307,1.03,1.01,1.02,1.06,1.07
A549,1.02,1.01,0.938,0.935,0.563,0.946,0.863,0.658,0.0802,0.0487,1.08,0.946,0.955,1.01,0.987
A-427,1.07,1,1,1.07,1.01,0.515,0.44,0.31,0.218,0.234,1.09,1.02,0.97,1.09,1.07
ABC-1,1.04,0.873,0.985,0.88,0.587,1.06,0.965,0.384,0.249,0.283,1.11,1.03,0.992,1.15,1.05
BEN,1.11,0.969,0.987,0.904,0.893,0.729,0.627,0.408,0.197,0.219,1.1,0.997,0.914,1.04,0.924
CAL-12T,1.02,1.04,1,1.07,0.877,0.854,0.82,0.485,0.344,0.198,1.09,0.986,0.973,1.07,1.17
COR-L23,0.961,0.928,0.979,0.759,0.417,0.98,0.882,0.661,0.233,0.135,1.1,1.02,0.944,0.986,1.02
COR-L 105,0.975,0.939,0.845,0.831,0.52,0.775,0.773,0.431,0.258,0.336,1.03,0.87,0.856,1.02,0.971
Calu-6,1.01,1.03,0.973,0.851,0.491,0.914,0.653,0.24,0.141,0.134,1.1,1.05,0.954,1.07,1.03
ChaGo-K-1,0.989,0.959,0.93,0.818,0.614,0.858,0.833,0.503,0.238,0.23,1.01,1.03,0.973,1.05,1.02
EBC-1,1.07,0.987,0.97,0.969,0.851,0.855,0.703,0.283,0.104,0.131,1.03,0.966,0.969,0.978,0.947
EKVX,1.01,0.984,0.99,1.05,0.855,0.933,0.914,0.685,0.238,0.209,1.02,1.08,1.02,1.03,0.982
EMC-BAC-2,1.05,0.942,1.16,1.2,0.855,0.876,0.906,0.359,0.243,0.257,0.978,0.965,0.984,0.989,1.16
EPLC-272H,1.2,1.11,1.07,0.924,0.919,0.873,0.637,0.0627,0.119,0.173,1.1,1.01,0.936,1.08,1.04
H3255,0.979,1.11,1.01,0.939,0.784,0.825,0.721,0.391,0.246,0.328,1.04,1.01,0.993,1.06,0.963
HARA,1.02,0.937,0.932,0.921,0.944,0.855,0.834,0.412,0.103,0.127,1.07,0.936,0.931,0.855,0.756
HCC-15,1.03,1.05,0.964,0.94,0.864,0.62,0.483,0.158,0.0986,0.103,1.07,1.03,0.988,1.01,0.909
HCC-44,1.04,0.92,0.949,0.915,0.723,0.635,0.683,0.219,0.217,0.225,1.03,1,1.01,0.869,1.05
HCC-78,1.09,0.982,1.02,0.927,0.905,0.968,0.771,0.849,0.323,0.265,0.984,1.06,1,0.976,0.904
HCC-366,1.04,0.974,1.03,1.02,0.95,1.05,1.02,0.674,0.228,0.0735,1.12,1.03,1.02,1.01,1
HCC-827,1.09,1.01,1.01,1.01,0.983,0.972,0.852,0.704,0.253,0.183,1.05,1.06,1.01,1.01,0.993
HOP-62,1.03,1.03,1.06,0.981,0.833,0.814,0.74,0.226,0.067,0.101,1.01,1.02,1.03,0.968,0.973
IA-LM,1.08,1.06,0.927,0.835,0.778,0.573,0.29,0.14,0.0648,0.0764,1.04,0.906,0.925,0.997,0.894

Cell Line,relative viability (Carboplatin; 0.08 µM),relative viability (Carboplatin; 0.253 µM),relative viability (Carboplatin; 0.8 µM),relative viability (Carboplatin; 2.53 µM),relative viability (Carboplatin; 8 µM),relative viability (MLN4924; 0.04 µM),relative viability (MLN4924; 0.1265 µM),relative viability (MLN4924; 0.4 µM),relative viability (MLN4924; 1.265 µM),relative viability (MLN4924; 4 µM),relative viability (GSK126; 0.08 µM),relative viability (GSK126; 0.253 µM),relative viability (GSK126; 0.8 µM),relative viability (GSK126; 2.53 µM),relative viability (GSK126; 8 µM)
LC-2-ad,1.01,0.948,0.955,0.953,0.849,0.922,0.825,0.521,0.235,0.181,1.09,0.985,0.988,1.02,1.05
LCLC-97TM1,1.13,0.978,1.09,1.03,0.837,0.929,0.657,0.31,0.073,0.0774,0.999,0.965,0.91,1.02,1.11
LCLC-103H,1.03,0.989,0.992,1.07,0.834,0.949,1.02,0.912,0.282,0.312,1.02,1.03,1.01,0.994,1.01
LK-2,1.11,0.943,0.947,0.937,1.06,0.971,0.787,0.618,0.245,0.239,1.01,0.988,0.985,1.08,0.994
LOU-NH91,1.16,0.938,0.96,0.969,0.936,0.997,1.13,0.929,0.543,0.563,0.966,0.978,0.95,1.06,0.985
LU99A,1.15,1.08,1.03,0.901,0.702,0.918,0.601,0.405,0.178,0.195,1.04,0.985,0.912,1.02,0.904
LXF-289,1.03,1.05,0.967,0.987,0.973,0.887,0.822,0.556,0.208,0.146,1.03,1.05,1.02,1.01,1.01
NCI-H23,1.13,1.01,0.991,1.02,0.792,0.815,0.721,0.462,0.204,0.206,1.03,0.949,1.02,1.18,1.21
NCI-H322M,1.1,0.918,0.984,0.969,0.931,1.26,1.3,0.684,0.273,0.35,0.925,0.959,0.992,1.09,0.968
NCI-H358,1.25,1.07,1.06,0.891,0.928,1.02,0.904,0.327,0.201,0.213,1.07,0.965,0.914,1.05,1.01
NCI-H441,0.957,1.08,0.925,1,0.801,0.943,0.822,0.512,0.148,0.185,1.23,0.954,0.986,1.05,0.995
NCI-H460,1.02,0.981,0.994,0.915,0.412,0.976,0.985,0.914,0.288,0.105,1.08,1.06,0.984,1.01,1.05
NCI-H520,1.01,0.915,0.947,0.962,0.822,0.706,0.563,0.533,0.24,0.243,1.21,0.979,0.932,1.22,1.03
NCI-H522,1.12,0.963,0.922,0.873,0.881,0.87,0.777,0.515,0.397,0.426,1.1,0.929,1.01,0.977,0.989
NCI-H596,0.993,0.995,0.938,0.826,0.752,0.973,1.1,0.554,0.854,0.739,0.983,0.9,0.965,1.01,0.981
NCI-H647,1.13,1.02,0.986,0.944,0.767,0.881,0.619,0.221,0.0551,0.0691,0.879,0.964,0.896,1.05,1
NCI-H650,0.988,0.874,0.959,0.864,0.668,0.618,0.668,0.268,0.183,0.194,0.991,0.962,0.939,0.914,1.03
NCI-H661,0.993,1.01,0.984,0.938,0.903,0.894,0.857,0.686,0.421,0.426,1.03,0.945,0.986,1.03,1
NCI-H727,1.11,0.841,0.94,0.83,0.671,0.844,0.587,0.5,0.307,0.326,1.02,0.946,0.849,0.997,1.02
NCI-H838,1.03,1.03,0.949,0.921,0.951,0.93,0.488,0.325,0.158,0.219,1.01,0.919,0.913,0.971,0.926
NCI-H1299,1.05,0.98,1.02,0.969,0.943,1.01,0.823,0.676,0.287,0.212,1.02,0.994,0.988,1,0.998
NCI-H1355,1.09,1.05,0.989,1,0.876,0.976,1.01,0.783,0.369,0.34,1.08,0.982,0.975,1.06,1.01
